Marks after values point to notes of the source that are not given here.
What was measured:
[1] = for Day 22 Mortality: single IP dose (mg/kg)
Method: To determine the growth inhibition effect and toxicity of the cytidine derivative samples of the present invention on the transplanted tumor of nude mice bearing colon cancer HCT-116.
The corresponding amount of test substance was taken in a 5 mL glass tube and dissolved in ethanol with a 5 mm magnetic stirrer for stirring. After dissolving completely, Cremophor EL was added with continuous stirring. The marked amount of saline was added and mixed evenly before use. The volume ratio of ethanol, Cremophor EL, and physiological saline was 5:5:90.
Varieties and lines; Balb/c Nude mice; level: SPF; sex: female.
4.2 Animal inoculation and grouping: Each nude mouse was inoculated subcutaneously with 0.1 mL of cell suspension (3×10^6 cell/mouse) at right side of hind limb in a sterile stale. When the tumor grew to about 60-150 mm^3, the nude mice with similar tumor volume and desirable shape were selected (it would be better to select single spherical shape, no irregular shape or multiple tumors grouped together) for grouping, 6 mice a group. The grouping is as follows:
The control group, namely the model control group, was injected with a mixture of ethanol, Cremophor EL, and saline (5:5:90).
Those mice were weighed three times a week.
All clinical symptoms of each animal should be recorded at the beginning of the test and during the test. The observations should be made at the same time each day.
An animal would be killed by CO2 when its weight loss was more than 20%, when it was about to die, or when its tumor volume exceeded 2800 mm^3. The tumor was separated and weighed, and the animal was autopsied and observed to evaluate and record whether there were pathological changes in the organs.
The data were expressed as Mean±SEM unless specially provided; Non-pairing T test was performed for the data between the two groups. P<0.05 was considered as significant difference.

[2] = test system: HCT-116 colon cancer xenografts; experiment: Tumor growth inhibition of HCT-116 colon cancer xenografts in tumor-bearing nude mice (tumor volume, TGI %, RTV, T/C %); assay type: in vivo, Balb/c Nude mice
Method: 4.1 Tumor cells: colon cancer HCT-116 cells, purchased from the Institute of Cell Biology, Chinese Academy of Sciences. The cells were incubated by F-12 medium (containing 10% FBS) in carbon dioxide incubator at 37° C. and in saturated humidity, with 5% CO2 and 95% air in volume fraction. Before inoculation, the cells at logarithmic phase were taken, and digested with 0.25% trypsin, washed once with PBS and resuspended in PBS for counting. The cells were resuspended in serum-free medium and adjusted to about 3×10^7 cell/mL.
The grouping is as follows:
The formations of tumor at the inoculation site of each group of nude mice were observed. The diameter of tumor nodule (D) was measured three times a week with round hole ruler, and the volume of tumor nodule (V) was calculated according to the following formula: […].
Anti-tumor activity was evaluated by tumor growth inhibition rate TGI (%) and relative tumor proliferation rate T/C (%).
The relative tumor volume (RTV) was calculated as: RTV=Vt/V0, where V0 was the tumor volume when they were grouped and administered, and Vt was the tumor volume at the time of measurement.
The relative proliferation rate T/C (%) was calculated as: […].
TRTV: RTV of the treatment group; CRTV: RTV of the control group.
P<0.05 was considered as significant difference.

[3] = Day 0, G3-G9 groups, single IP dose, Mean±SEM
[4] = Day 4, G3-G9 groups, single IP dose, Mean±SEM
[5] = Day 6, G3-G9 groups, single IP dose, Mean±SEM
[6] = Day 8, G3-G9 groups, single IP dose, Mean±SEM
[7] = Day 11, G3-G9 groups, single IP dose, Mean±SEM
[8] = Day 13, G3-G9 groups, single IP dose, Mean±SEM
[9] = Day 15, G3-G9 groups, single IP dose, Mean±SEM
[10] = Day 18, G3-G9 groups, single IP dose, Mean±SEM
[11] = Day 20, G3-G9 groups, single IP dose, Mean±SEM
[12] = Day 22, G3-G9 groups, single IP dose, Mean±SEM

Cl.Nc1ccn([C@@H]2O[C@H](CO)[C@@H](O)C2(F)F)c(=O)n1 [Compound G1, 2′deoxy-2′,2′-difluorocytidine hydrochloride, reference compound]
Day 22 Mortality ([1]; Day 22): 100%

CC(C)(C)OC(=O)Nc1ccn([C@@H]2O[C@H](COC(=O)Cn3cnc([N+](=O)[O-])c3)[C@@H](O)C2(F)F)c(=O)n1 [Compound G9, 5′-O-[2-(4-nitro-1H-imidazole)acetate]-4-N-(tert-butoxycarbonyl)-2′-deoxy-2′,2′-difluorocytidine]
Day 0 (RTV) [2, 3]: 1.00 ± 0.00
Tumor volume, Day 0 [2, 3]: 42.31 ± 7.52** mm^3
Day 4 (TGI %) ([2]; Day 4, G3-G9 groups, single IP dose): 80.77%
Day 4 (RTV) [2, 4]: 1.21 ± 0.16
Tumor volume, Day 4 [2, 4]: 51.25 ± 10.24** mm^3
Day 6 (TGI %) ([2]; Day 6, G3-G9 groups, single IP dose): 80.67%
Day 6 (RTV) [2, 5]: 1.82 ± 0.40
Tumor volume, Day 6 [2, 5]: 81.69 ± 23.70** mm^3
Day 8 (TGI %) ([2]; Day 8, G3-G9 groups, single IP dose): 79.22%
Day 8 (RTV) [2, 6]: 2.72 ± 0.82
Tumor volume, Day 8 [2, 6]: 109.19 ± 29.60** mm^3
Day 11 (TGI %) ([2]; Day 11, G3-G9 groups, single IP dose): 76.07%
Day 11 (RTV) [2, 7]: 4.91 ± 1.08
Tumor volume, Day 11 [2, 7]: 192.42 ± 37.84** mm^3
Day 13 (TGI %) ([2]; Day 13, G3-G9 groups, single IP dose): 72.93%
Day 13 (RTV) [2, 8]: 8.16 ± 1.87
Tumor volume, Day 13 [2, 8]: 314.26 ± 60.92** mm^3
Day 15 (TGI %) ([2]; Day 15, G3-G9 groups, single IP dose): 60.81%
Day 15 (RTV) [2, 9]: 13.83 ± 2.98
Tumor volume, Day 15 [2, 9]: 553.69 ± 115.02** mm^3
Day 18 (TGI %) ([2]; Day 18, G3-G9 groups, single IP dose): 51.00%
Day 18 (RTV) [2, 10]: 23.10 ± 5.36
Tumor volume, Day 18 [2, 10]: 907.03 ± 187.09** mm^3
Day 20 (TGI %) ([2]; Day 20, G3-G9 groups, single IP dose): 42.39%
Day 20 (RTV) [2, 11]: 31.85 ± 7.62
Tumor volume, Day 20 [2, 11]: 1221.09 ± 228.29** mm^3
Day 22 (RTV) [2, 12]: 42.35 ± 10.48
Tumor volume, Day 22 [2, 12]: 1607.01 ± 297.45** mm^3
relative tumor volume compared with the model control group ([2]; G4 and G5 Day 4 to Day 18, G7 Day 4 to Day 15 (p<0.05-0.01), G9 only Day 4 (p<0.05)): reduced significantly
maximum value of TGI % ([2]; day of maximum: G3 Day 8, G4 Day 11, G5 Day 11, G9 Day 4, G7 Day 8, single IP): 80.77%
Weight change rate, Day 0 [1, 3]: 0.00 ± 0.00%
Weight of mice, Day 0 [1, 3]: 20.55 ± 0.56 g
Weight change rate, Day 4 [1, 4]: −0.08 ± 3.14%
Weight of mice, Day 4 [1, 4]: 20.48 ± 0.57 g
Weight change rate, Day 6 [1, 5]: 2.53 ± 2.85%
Weight of mice, Day 6 [1, 5]: 21.02 ± 0.48 g
Weight change rate, Day 8 [1, 6]: 3.54 ± 3.17%
Weight of mice, Day 8 [1, 6]: 21.22 ± 0.51 g
Weight change rate, Day 11 [1, 7]: 5.18 ± 2.98%
Weight of mice, Day 11 [1, 7]: 21.55 ± 0.43 g
Weight change rate, Day 13 [1, 8]: 7.65 ± 3.18%
Weight of mice, Day 13 [1, 8]: 22.05 ± 0.42 g
Weight change rate, Day 15 [1, 9]: 5.50 ± 3.26%
Weight of mice, Day 15 [1, 9]: 21.60 ± 0.33 g
Weight change rate, Day 18 [1, 10]: 3.38 ± 3.55%
Weight of mice, Day 18 [1, 10]: 21.17 ± 0.46 g
Weight change rate, Day 20 [1, 11]: 2.91 ± 3.85%
Weight of mice, Day 20 [1, 11]: 21.05 ± 0.36 g
Weight change rate, Day 22 [1, 12]: 8.18 ± 4.15%
Weight of mice, Day 22 [1, 12]: 22.13 ± 0.47 g
Day 22 Mortality ([1]; Day 22): 0%
clinical symptoms ([1]; after single IP dose, compared with model control group): no significant differences in clinical symptoms

Reference: patent publication US10174067B2, “Type of cytidine derivative and application thereof” (priority 2014, dated 2019)
